Measured values: the supplement of paper PMC10307832

Assays:
Experiment in all cases: relative viability (nuclei count vs DMSO), 5 days (fraction); higher = more cells survive
Vemurafenib + Bortezomib = compound: CCCS(=O)(=O)Nc1ccc(F)c(C(=O)c2c[nH]c3ncc(-c4ccc(Cl)cc4)cc23)c1F [Vemurafenib] + CC(C)C[C@H](NC(=O)[C@H](Cc1ccccc1)NC(=O)c1cnccn1)B(O)O [Bortezomib] (partner 0.002 µM)
In short: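 Each reported value is a median over duplicate plates. It expresses relative viability: treated-well nuclei count divided by vehicle-well nuclei count. Lung cancer cell lines in 1536-well plates were dosed by pin tool a day after seeding, alone with one drug or with a fixed anchor-drug dose plus five library-drug doses (not always all listed) in √10 steps, and nuclei were counted after 5 days.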

OSI-027 = compound: COc1cccc2cc(-c3nc([C@H]4CC[C@H](C(=O)O)CC4)n4ncnc(N)c34)[nH]c12 [OSI-027]
In short: (§1)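 Only plates meeting two conditions passed: control CV below 25% and at least one doubling. Lung cancer cell lines, kept overnight at 37 °C in 1536-well plates, were pinned with five library-drug doses (not always all listed) √10 apart on vehicle-anchored plates and grown 5 days without medium change. A one-step fix, permeabilisation and Hoechst stain preceded 4× imaging and MetaXpress nuclear counting. Viability equals treated-well nuclei divided by vehicle-well nuclei, as the median over plates.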

Vemurafenib = compound: CCCS(=O)(=O)Nc1ccc(F)c(C(=O)c2c[nH]c3ncc(-c4ccc(Cl)cc4)cc23)c1F [Vemurafenib]
In short: as §1

Alpelisib = compound: Cc1nc(NC(=O)N2CCC[C@H]2C(N)=O)sc1-c1ccnc(C(C)(C)C(F)(F)F)c1 [Alpelisib]
In short: as §1

| Cell Line | relative viability (Vemurafenib + Bortezomib; first compound 0.03162 µM) | relative viability (Vemurafenib + Bortezomib; first compound 0.1 µM) | relative viability (Vemurafenib + Bortezomib; first compound 0.3162 µM) | relative viability (Vemurafenib + Bortezomib; first compound 1 µM) | relative viability (OSI-027; 0.01 µM) | relative viability (OSI-027; 0.03162 µM) | relative viability (OSI-027; 0.1 µM) | relative viability (OSI-027; 0.3162 µM) | relative viability (OSI-027; 0.5 µM, anchor plate) | relative viability (OSI-027; 1 µM) | relative viability (Vemurafenib; 0.03162 µM) | relative viability (Vemurafenib; 0.1 µM) | relative viability (Vemurafenib; 0.3162 µM) | relative viability (Vemurafenib; 1 µM) | relative viability (Alpelisib; 0.04 µM) | relative viability (Alpelisib; 0.1265 µM) | relative viability (Alpelisib; 0.4 µM) | relative viability (Alpelisib; 1.265 µM) | relative viability (Alpelisib; 2 µM, anchor plate) | relative viability (Alpelisib; 4 µM) |
| --- | --- | --- | --- | --- | --- | --- | --- | --- | --- | --- | --- | --- | --- | --- | --- | --- | --- | --- | --- | --- |
| NCI-H2085 | 1.05 | 0.91 | 0.914 | 0.847 | 0.962 | 0.967 | 0.928 | 0.926 | 0.789 | 0.658 | 0.89 | 0.885 | 0.805 | 1.02 | 0.988 | 0.943 | 1.01 | 0.93 | 0.984 | 0.889 |
| NCI-H2087 | 0.759 | 0.701 | – | 0.753 | 0.986 | 1.03 | 0.911 | 0.911 | 0.605 | 0.508 | 1.01 | 1.11 | – | 1.13 | 1.21 | 1.02 | 1.08 | 0.868 | 1 | 0.85 |
| NCI-H2126 | 1.07 | 1.07 | 1.09 | 1.14 | 0.977 | 1.02 | 0.943 | 0.873 | 0.722 | 0.664 | 0.925 | 0.845 | 0.966 | 0.988 | 1.02 | 1.01 | 0.936 | 0.791 | 0.746 | 0.758 |
| NCI-H2228 | 1.03 | 1 | 1.24 | 1.15 | 0.975 | 0.88 | 0.957 | 0.941 | 0.625 | 0.619 | 1.04 | 0.948 | 1.05 | 0.999 | 0.947 | 0.881 | 1.04 | 0.686 | 0.742 | 0.495 |
| NCI-H2347 | 0.737 | 0.79 | 0.712 | 1.02 | 0.979 | 1.07 | 0.904 | 0.772 | 0.376 | 0.516 | 0.939 | 1.02 | 0.791 | 0.924 | 1.07 | 0.97 | 1.12 | 0.949 | 0.992 | 0.864 |
| NCI-H2405 | 0.925 | 0.995 | – | 0.829 | 0.981 | 0.981 | 0.887 | 0.795 | 0.646 | 0.518 | 0.945 | 0.955 | – | 0.98 | 1.02 | 0.965 | 0.973 | 0.824 | 0.749 | 0.703 |
| NCI-H3122 | 0.989 | 1.01 | 1.04 | 1.07 | 1.03 | 1.02 | 1.08 | 0.959 | 1.03 | 0.704 | 1.03 | 0.979 | 1.03 | 1.12 | 0.981 | 1.02 | 1.02 | 0.968 | 0.759 | 0.744 |
| PC-3 [JPC-3] | 0.81 | – | 0.804 | 0.887 | 1.01 | 0.993 | 1.03 | 0.918 | 0.745 | 0.698 | 0.972 | – | 0.971 | 1.18 | 1.1 | 1.03 | 1.13 | 0.943 | 0.999 | 1.01 |
| PC-14 | 0.728 | – | 0.88 | 0.777 | 1 | 1.04 | 0.965 | 0.979 | 0.815 | 0.765 | 0.94 | – | 0.864 | 1.01 | 1.01 | 1 | 1.03 | 0.89 | 0.908 | 0.973 |
| RERF-LC-KJ | 1.04 | 1.06 | 1.06 | 1.19 | 0.942 | 1.01 | 0.933 | 0.735 | 0.597 | 0.464 | 0.957 | 0.984 | 0.942 | 1.03 | 0.94 | 0.914 | 1.01 | 0.824 | 0.844 | 0.87 |
| SK-LU-1 | 0.86 | 1.05 | – | 1.14 | 1.08 | 0.974 | 0.916 | 0.608 | 0.328 | 0.425 | 0.95 | 0.958 | 0.669 | 0.978 | 1.07 | 0.977 | 1.03 | 0.855 | 0.922 | 0.812 |
| SW 1573 | 0.896 | 0.945 | 1.03 | 1.07 | 0.951 | 0.892 | 0.938 | 0.878 | 0.671 | 0.655 | 0.916 | 0.927 | 0.957 | 0.941 | 0.98 | 0.916 | 0.94 | 0.704 | 0.733 | 0.649 |
